# Reference: patent US8119640B2, “Hedgehog pathway antagonists methods of use” (The Board of Trustees of the Leland Stanford Junior …, priority 2008, dated 2012)
# “Also recorded” adds a separate entry of the source.
# Experiments:
# Assay type in all cases: cell-based
# [1] = test system: NIH-3T3 cells; test: Microtubule cytoskeleton staining of HPI-treated NIH-3T3 cells; details: tubulin antibody staining
# Method: Immunostaining of FLAG-Gli lines and NIH-3T3 cells. The FLAG-Gli1-expressing or FLAG-Gli2-expressing clonal cell lines were seeded into 24-well plates (80,000 cells/well) containing poly-D-lysine-coated 12-mm glass coverslips. […] The cells were subsequently fixed in 4% paraformaldehyde for 10 min at room temperature followed by treatment with methanol at −20° C. for 2 to 5 min. The cells were washed with PBS, permeabilized with 0.2% Triton X-100 for 2 to 5 min, and then blocked with PBS containing 2% BSA for 3 h at room temperature. The coverslips were then treated with mouse anti-FLAG M2 antibody (Sigma; 1:1,000 dilution in blocking buffer) and rabbit anti-Arl13b (10) (1:1,000 dilution in blocking buffer) for 3 h at room temperature and washed 3×5 min with PBS. The coverslips were incubated next with Alexa Fluor 594-conjugated goat anti-mouse IgG and Alexa Fluor 488-conjugated donkey anti-rabbit IgG antibodies (Invitrogen; 1:1,000 dilutions in blocking buffer) for 2 h at room temperature. After washes with PBS and a 5-min incubation with 4,6-diamidino-2-phenylindole (DAPI), the samples were mounted using Prolong Gold (Invitrogen) and imaged with an upright Leica DM4500B compound microscope. In order to quantify ciliary Gli2 localization, a circular region with diameter equal to the average width of cilia as determined by the anti-Arl13b antibody staining was manually placed at the distal end of each cilium. Regions were transferred from the anti-Arl13b antibody image to the anti-FLAG antibody image, and FLAG staining intensities within those areas were assessed. Between 40 and 80 cilia were analyzed for each condition. To normalize ciliary FLAG-Gli2 levels with respect to compound-dependent changes in total FLAG-Gli2 levels, the absolute average intensities for each condition were divided by the fold change in FLAG-Gli2 levels, as determined by the quantitative immunoblotting described above. Quantification of ciliary FLAG-Gli1 levels was performed in an analogous manner. Since HPI-4 perturbs primary cilia formation, only Arl13b-positive structures that could be clearly identified as cilia were used for Gli protein quanitification in HPI-4-treated cells. To assess cytoplasmic microtubule structures in cells treated with the HPIs, NIH-3T3 cells were cultured on poly-D-lysine-coated 12-mm glass coverslip, treated with the HPIs, and fixed with 4% paraformalehyde as described above. In place of the methanol treatment, the cells were permeabilitized with PBS containing 0.1% Triton X-100 for 1 min. Washing, blocking, and antibody incubation steps were then conducted as before, using mouse anti-<-tubulin (DM1-A, Sigma, 1:2,000 in blocking buffer). Secondary antibody treatments, DAPI staining, mounting, and imaging were then conducted as described above.
# [2] = target: T1, Gli1 (Mus musculus, UniProt P47806); test: Hh pathway activation mediated by overexpression of Gli1; details: for Inhibition of Hh pathway activity induced by Gli1 overexpression: NIH-3T3 cells, Gli-dependent firefly luciferase; for IC50: NIH-3T3 cells overexpressing Gli1, read-out: IC50 (uM) Gli1 Transfected or Infection
# T1 construct: expressed in transfected cells; host or cells: NIH-3T3
# T1 sequence (P47806 1-1111): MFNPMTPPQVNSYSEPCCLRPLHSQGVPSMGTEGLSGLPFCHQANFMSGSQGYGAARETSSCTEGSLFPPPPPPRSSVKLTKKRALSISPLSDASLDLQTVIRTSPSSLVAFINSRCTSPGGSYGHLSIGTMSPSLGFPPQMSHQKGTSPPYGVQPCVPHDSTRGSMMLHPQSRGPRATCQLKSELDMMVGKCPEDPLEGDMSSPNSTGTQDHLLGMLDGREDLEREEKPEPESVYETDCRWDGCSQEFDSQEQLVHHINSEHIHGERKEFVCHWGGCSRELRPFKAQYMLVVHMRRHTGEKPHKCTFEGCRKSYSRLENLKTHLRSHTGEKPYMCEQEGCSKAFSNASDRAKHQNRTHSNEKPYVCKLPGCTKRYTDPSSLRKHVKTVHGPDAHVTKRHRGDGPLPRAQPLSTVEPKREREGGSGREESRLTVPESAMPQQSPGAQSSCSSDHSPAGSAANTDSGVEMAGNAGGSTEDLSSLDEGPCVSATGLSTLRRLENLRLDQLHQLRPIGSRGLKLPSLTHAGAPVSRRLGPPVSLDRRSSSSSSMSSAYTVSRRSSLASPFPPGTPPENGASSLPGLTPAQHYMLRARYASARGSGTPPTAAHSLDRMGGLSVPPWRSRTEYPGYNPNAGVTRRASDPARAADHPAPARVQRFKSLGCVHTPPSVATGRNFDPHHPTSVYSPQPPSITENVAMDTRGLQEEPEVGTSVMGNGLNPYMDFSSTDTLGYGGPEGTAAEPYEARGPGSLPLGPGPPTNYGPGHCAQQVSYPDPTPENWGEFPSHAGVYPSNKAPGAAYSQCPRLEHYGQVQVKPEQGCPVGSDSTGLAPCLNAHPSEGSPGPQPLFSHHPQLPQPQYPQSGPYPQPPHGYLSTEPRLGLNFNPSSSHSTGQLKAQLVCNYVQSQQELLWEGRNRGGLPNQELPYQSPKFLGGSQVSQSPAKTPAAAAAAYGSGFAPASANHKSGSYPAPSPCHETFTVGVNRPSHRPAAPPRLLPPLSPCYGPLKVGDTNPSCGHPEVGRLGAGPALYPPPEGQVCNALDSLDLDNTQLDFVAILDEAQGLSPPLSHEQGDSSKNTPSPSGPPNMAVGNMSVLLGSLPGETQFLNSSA
# Method: (§1) Hh pathway activation mediated by the overexpression of Gli, Gli2, Gli2αPKA, or Gli2αGSK. […] The cells were co-transfected the following day with 220 ng/well pcDNA-derived Gli1, Gli2, or Gli2 phosphosite mutant expression vectors and 80 ng/well of a 1:15 mixture of phRLTK (Promega) and 8XGIiBS-FL. After transfection, cells were grown to confluence (approximately 48 h). The cell were then incubated for an additional 28-32 h in DMEM containing 0.5% CS, 100 U/mL penicillin, 0.1 mg/mL streptomycin, and either DMSO, 50 μM forskolin, 50 μM LY294002, or various concentrations of the HPIs. Firefly and Renilla luciferase activities were measured using a dual luciferase kit and a Veritas microplate luminometer.
# [3] = target: T2, Gli2 (Mus musculus, UniProt Q0VGT2); test: Hh pathway activation mediated by overexpression of Gli2; details: for Inhibition of Hh pathway activity induced by Gli2 overexpression: NIH-3T3 cells, Gli-dependent firefly luciferase; for IC50: NIH-3T3 cells overexpressing Gli2, read-out: IC50 (uM) Gli2 Transfected
# T2 construct: expressed in transfected cells; host or cells: NIH-3T3
# T2 sequence (Q0VGT2 whole entry): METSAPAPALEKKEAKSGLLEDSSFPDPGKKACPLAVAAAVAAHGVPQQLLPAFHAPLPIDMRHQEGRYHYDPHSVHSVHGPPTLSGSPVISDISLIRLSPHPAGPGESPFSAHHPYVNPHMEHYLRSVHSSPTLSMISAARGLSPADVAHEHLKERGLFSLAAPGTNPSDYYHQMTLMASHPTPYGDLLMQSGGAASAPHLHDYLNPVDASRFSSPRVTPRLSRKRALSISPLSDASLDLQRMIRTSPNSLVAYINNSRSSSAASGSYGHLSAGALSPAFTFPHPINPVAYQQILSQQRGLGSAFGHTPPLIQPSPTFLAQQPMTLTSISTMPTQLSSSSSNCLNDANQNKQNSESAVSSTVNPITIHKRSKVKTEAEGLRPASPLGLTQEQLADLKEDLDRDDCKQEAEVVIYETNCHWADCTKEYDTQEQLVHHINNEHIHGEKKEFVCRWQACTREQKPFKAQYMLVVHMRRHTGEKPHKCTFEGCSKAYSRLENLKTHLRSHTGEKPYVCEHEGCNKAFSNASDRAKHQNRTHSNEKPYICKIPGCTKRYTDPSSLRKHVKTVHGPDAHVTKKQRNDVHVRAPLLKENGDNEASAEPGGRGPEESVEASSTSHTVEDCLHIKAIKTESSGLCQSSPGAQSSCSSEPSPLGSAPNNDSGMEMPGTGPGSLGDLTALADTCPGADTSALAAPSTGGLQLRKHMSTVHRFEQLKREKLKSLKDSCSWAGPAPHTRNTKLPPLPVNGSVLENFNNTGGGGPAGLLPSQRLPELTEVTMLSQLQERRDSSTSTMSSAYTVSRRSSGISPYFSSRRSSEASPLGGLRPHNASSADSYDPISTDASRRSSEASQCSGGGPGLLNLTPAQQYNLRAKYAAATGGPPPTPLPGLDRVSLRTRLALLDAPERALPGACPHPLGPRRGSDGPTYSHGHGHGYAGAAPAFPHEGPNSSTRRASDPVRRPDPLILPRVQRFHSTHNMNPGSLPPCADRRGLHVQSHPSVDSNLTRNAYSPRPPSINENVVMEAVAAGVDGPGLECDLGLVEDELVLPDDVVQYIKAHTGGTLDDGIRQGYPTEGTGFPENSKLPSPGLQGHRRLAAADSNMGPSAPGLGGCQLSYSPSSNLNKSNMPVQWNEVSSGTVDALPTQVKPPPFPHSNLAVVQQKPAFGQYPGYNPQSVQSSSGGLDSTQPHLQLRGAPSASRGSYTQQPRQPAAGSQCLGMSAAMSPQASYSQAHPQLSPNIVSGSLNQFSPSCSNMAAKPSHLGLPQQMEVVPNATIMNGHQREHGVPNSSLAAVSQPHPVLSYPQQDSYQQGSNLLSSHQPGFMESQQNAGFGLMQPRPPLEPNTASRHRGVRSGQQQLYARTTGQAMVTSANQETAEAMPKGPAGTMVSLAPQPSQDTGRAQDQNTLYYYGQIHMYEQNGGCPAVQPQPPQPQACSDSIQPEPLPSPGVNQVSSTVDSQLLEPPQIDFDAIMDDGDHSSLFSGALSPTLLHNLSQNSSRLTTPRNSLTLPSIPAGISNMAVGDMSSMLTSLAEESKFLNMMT
# Method: as §1
smiles,measurement,setting,value
"COCCOC(=O)C1=C(C)NC2=C(C(=O)CC(c3ccccc3OC)C2)C1c1cccc(O)c1 (mixture of isomers) [Compound 8, 4-(3-Hydroxy-phenyl)-7-(2-methoxy-phenyl)-2-methyl-5-oxo-1,4,5,6,7,8-hexahydro-quinoline-3-carboxylic acid 2-methoxy-ethyl ester]",Microtubule disruption,[1],No
same,Inhibition of Hh pathway activity induced by Gli1 overexpression,[2]; listed as HPI-1,inhibit Gli-induced firefly luciferase expression in a dose-dependent manner; also recorded: inhibits
same,Inhibition of Hh pathway activity induced by Gli2 overexpression,[3]; listed as HPI-1,inhibit Gli-induced firefly luciferase expression in a dose-dependent manner; also recorded: inhibits
N#Cc1cc2c(nc1SCC(=O)Nc1nc3ccccc3s1)CCC2 [Compound 1],Microtubule disruption,[1],No
same,IC50,[2],1 µM
same,IC50,[3],3 µM
CCCCNC(=N)C(C)c1ccc(CC(C)C)cc1 (centres unmarked) [Compound 2],Microtubule disruption,[1],No
same,IC50,[2],> 30 µM
same,IC50,[3],> 30 µM
Cc1cc(/C=c2\sc3nc4ccccc4n3c2=O)c(C)n1C(C)C [Compound 3],Microtubule disruption,[1],No
same,IC50,[2],1 µM
same,IC50,[3],2 µM
O=C(Nc1cccc2ccccc12)OC[C@@H]1CCCN2CCCC[C@H]12 [Compound 4],Microtubule disruption,[1],No
same,IC50,[2],> 30 µM
same,IC50,[3],> 30 µM
CCC(C)NS(=O)(=O)c1ccc(Cc2ccc(S(=O)(=O)NC(C)CC)cc2)cc1 (centres unmarked) [Compound 5],Microtubule disruption,[1],No
same,IC50,[2],7 µM
same,IC50,[3],10 µM
CCOC(=O)c1cc2c(=O)n3ccccc3nc2n(C(C)C)c1=NC(=O)c1cc(OC)cc(OC)c1 [Compound 6],Microtubule disruption,[1],No
same,IC50,[2],1.5 µM
same,IC50,[3],1.5 µM
CCN1CCCC1CNC(=O)C1CCN(c2nc3c(C)cc(C)cc3s2)CC1 (centres unmarked) [Compound 7],Microtubule disruption,[1],No
same,Toxicity noted in Gli1 Transfected or Infection column,[2],(Toxic at 30)
same,IC50,[2],> 10 µM
same,Toxicity noted in Gli2 Transfected column,[3],(Toxic at 30)
same,IC50,[3],> 10 µM
CCOC(=O)c1cn(-c2ccccc2)nc1-c1ccc(OC)c(OC)c1 [Compound 9],Microtubule disruption,[1],No
same,IC50,[2],> 30 µM
same,IC50,[3],> 30 µM
O=S(=O)(Nc1cc(Cl)c(Cl)cc1Cl)c1ccc(F)cc1 [Compound 10],Microtubule disruption,[1],No
same,IC50,[2],2 µM
same,IC50,[3],4 µM
OCCNc1nc(N2CCN(c3ccccc3)CC2)nc2ccccc12 [Compound 11],Microtubule disruption,[1],No
same,IC50,[2],> 30 µM
same,Inhibition of Hh pathway activity induced by Gli1 overexpression,[2]; listed as HPI-3,no significant activity; also recorded: inactive
same,IC50,[3],> 30 µM
same,Inhibition of Hh pathway activity induced by Gli2 overexpression,[3]; listed as HPI-3,no significant activity; also recorded: inactive
CC(C)(C)N(CCNS(=O)(=O)c1ccc(-c2cc(C(F)(F)F)no2)s1)Cc1ccco1 [Compound 12],Microtubule disruption,[1],No
same,IC50,[2],4 µM
same,IC50,[3],15 µM
CN1CCN(C2Cc3ccccc3Sc3ccccc32)CC1 (centres unmarked) [Compound 13],Microtubule disruption,[1],No
same,IC50,[2],> 30 µM
same,IC50,[3],> 30 µM
CCOc1ccc2ncc(C(=O)c3ccc(C)cc3)c(N3CCCC3)c2c1 [Compound 14],Microtubule disruption,[1],No
same,IC50,[2],> 30 µM
same,IC50,[3],10 µM
O=C(Nc1nnc(S(=O)(=O)N2CCCCC2)s1)c1cccc(Br)c1 [Compound 15],Microtubule disruption,[1],No
same,IC50,[2],12 µM
same,IC50,[3],25 µM
CCOc1ccc(CCNc2cnnc3c(Cl)cccc23)cc1OCC [Compound 16],Microtubule disruption,[1],No
same,IC50,[2],> 30 µM
same,IC50,[3],> 30 µM
COc1ccc(OC)c2c1cc1n2CC(C)(C(=O)NC2CCCCCCC2)N(CCN(C)C)C1=O (centres unmarked) [Compound 17],Microtubule disruption,[1],No
same,IC50,[2],> 30 µM
same,Inhibition of Hh pathway activity induced by Gli1 overexpression,[2],entirely due to a moderate increase in Renilla luciferase activity
same,IC50,[3],6 µM
same,Inhibition of Hh pathway activity induced by Gli2 overexpression,[3]; listed as HPI-2,preferentially inhibits Gli2
N#CC(C(=O)c1ccc(Cl)cc1Cl)=C1NC(=O)c2ccccc2N1 [Compound 18],Microtubule disruption,[1],No
same,IC50,[2],> 10 µM
same,Inhibition of Hh pathway activity induced by Gli1 overexpression,[2]; listed as HPI-4,no significant activity; also recorded: inactive
same,IC50,[3],> 10 µM
same,Inhibition of Hh pathway activity induced by Gli2 overexpression,[3]; listed as HPI-4,no significant activity; also recorded: inactive
